Assay [1] deals with VEGFR. Kind of assay: VEGFR activity, cellular dielectric spectroscopy in HUVE cells. The assay is classed as cell-based. To be noted: 100 µM, 0.1 nM VEGF. On the procedure: Impedance measurement was monitored for 10 minutes. VEGF receptor tyrosine kinase inhibitor II (Calbiochem-Merck, Darmstadt, Germany) was used as a standard reference.
These assays were performed at CEREP (Celle L'Evescault, France).
A, B) EGFR phosphorylation was induced by 30 ng/ml and 10 ng/ml EGF on PC3 (A) and HT29 (B) cells, respectively. […] Data are the means of two experiments ± st. err.

Assay [2] concerns the target T1, EphA2-ephrinA1 binding (Mus musculus, UniProt Q03145).
T1 construct: we immobilized EphA2-Fc- ectodomain on proper ELISA plates; purchased R&D systems 639-A2 (EphA2-Fc); BT602 (biotinylated ephrinA1-Fc)
Kind of assay: ELISA EphA2-ephrinA1 binding (displacement and saturation). Here is the method:
Our chemical collection (Table S1) was stocked in a 20 mM dimethyl sulfoxide (DMSO) solution and we performed binding assay at a concentration of 200 µM. Only compounds displacing more than 40% ephrinA1 from EphA2 receptor were considered for a full concentration-binding curve. […] The day after wells were washed three times with washing buffer (PBS +0.05% tween20, pH 7.5) and blocked with 300 µl of blocking solution (PBS +0.5% BSA) for 1 hour at 37°C. Compounds were added to the wells at proper concentration in 1% dimethyl sulfoxide (DMSO) and incubated at 37°C for 1 hour. Biotinylated ephrinA1-Fc (R&D BT602) was added at 37°C for 4 hours at 30 ng/ml in displacement assays or in a range from 1 to 2000 ng/ml in saturation studies. […] The reaction was stopped with 3N HCl 100 µl/well and the absorbance was measured using an ELISA plate reader (Sunrise, TECAN, Switzerland) at 450 nm.
The IC50 value was determined using one-site competition non-linear regression and Kd values of the curves with or without antagonists were calculated using one-binding site non-linear regression analysis with Prism software (GraphPad Software Inc.). The Ki was obtained using Schild plot where Log[DR-1] is a function of the negative Log10 of the inhibitor concentration. The Hill's coefficient was calculated using linear fitting to evaluate whether the inhibition was competitive or uncompetitive.
To identify compounds interfering with EphA2-ephrinA1 binding we immobilized EphA2-Fc- ectodomain on proper ELISA plates and binding of biotinylated-ephrin-A1-Fc was detected using the colorimetric reaction developed by streptavidine-HRP and tetramethylbenzidine.

In assay [3] the target is EphA2 (Homo sapiens, UniProt P29317). The note with it: up to 100 µM. On the procedure: Recombinant human EphA2 enzyme activity was evaluated with LANCE® method using ATP and Ulight-TK peptide as substrate (http://las.perkinelmer.com/).
Chain of EphA2 (P29317 24-976): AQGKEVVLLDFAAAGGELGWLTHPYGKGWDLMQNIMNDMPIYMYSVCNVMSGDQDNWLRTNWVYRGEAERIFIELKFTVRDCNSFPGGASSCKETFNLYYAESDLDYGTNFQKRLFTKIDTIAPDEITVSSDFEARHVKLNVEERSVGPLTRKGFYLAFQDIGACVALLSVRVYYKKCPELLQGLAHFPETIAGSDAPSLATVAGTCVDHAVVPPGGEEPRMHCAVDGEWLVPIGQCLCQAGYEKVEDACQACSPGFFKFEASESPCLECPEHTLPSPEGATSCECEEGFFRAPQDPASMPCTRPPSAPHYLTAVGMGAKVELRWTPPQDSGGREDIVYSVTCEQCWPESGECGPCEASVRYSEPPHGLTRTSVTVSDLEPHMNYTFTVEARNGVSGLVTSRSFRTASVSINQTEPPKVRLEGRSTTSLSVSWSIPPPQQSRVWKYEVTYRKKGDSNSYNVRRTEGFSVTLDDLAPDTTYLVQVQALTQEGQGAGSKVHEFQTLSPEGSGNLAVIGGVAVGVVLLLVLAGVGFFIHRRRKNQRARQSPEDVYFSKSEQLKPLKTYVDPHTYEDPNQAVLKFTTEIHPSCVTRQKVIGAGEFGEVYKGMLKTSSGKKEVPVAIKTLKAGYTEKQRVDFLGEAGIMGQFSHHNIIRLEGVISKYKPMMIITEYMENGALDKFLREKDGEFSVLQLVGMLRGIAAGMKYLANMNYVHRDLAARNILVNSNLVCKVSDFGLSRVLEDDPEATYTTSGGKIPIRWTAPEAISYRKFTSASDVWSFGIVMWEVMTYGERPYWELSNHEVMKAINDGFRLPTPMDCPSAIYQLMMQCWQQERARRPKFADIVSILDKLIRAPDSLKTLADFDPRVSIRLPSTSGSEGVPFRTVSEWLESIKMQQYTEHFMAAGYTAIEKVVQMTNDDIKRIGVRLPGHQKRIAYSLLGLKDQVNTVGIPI
The target in assay [4] is T1, EphA2-ephrinA1 binding. Kind of assay: ELISA EphA2-ephrinA1 binding (displacement and saturation). To be noted: 200 µM for 1 hour, some wells washed before adding 50 ng/ml ephrinA1-Fc.
Assay [5] deals with T2, EphB4 (Homo sapiens, UniProt P54760).
T2 construct: EphB4 phosphorylation on T47D breast cancer cells; endogenous in cells; host or cells: T47D
T2 sequence (P54760 16-987): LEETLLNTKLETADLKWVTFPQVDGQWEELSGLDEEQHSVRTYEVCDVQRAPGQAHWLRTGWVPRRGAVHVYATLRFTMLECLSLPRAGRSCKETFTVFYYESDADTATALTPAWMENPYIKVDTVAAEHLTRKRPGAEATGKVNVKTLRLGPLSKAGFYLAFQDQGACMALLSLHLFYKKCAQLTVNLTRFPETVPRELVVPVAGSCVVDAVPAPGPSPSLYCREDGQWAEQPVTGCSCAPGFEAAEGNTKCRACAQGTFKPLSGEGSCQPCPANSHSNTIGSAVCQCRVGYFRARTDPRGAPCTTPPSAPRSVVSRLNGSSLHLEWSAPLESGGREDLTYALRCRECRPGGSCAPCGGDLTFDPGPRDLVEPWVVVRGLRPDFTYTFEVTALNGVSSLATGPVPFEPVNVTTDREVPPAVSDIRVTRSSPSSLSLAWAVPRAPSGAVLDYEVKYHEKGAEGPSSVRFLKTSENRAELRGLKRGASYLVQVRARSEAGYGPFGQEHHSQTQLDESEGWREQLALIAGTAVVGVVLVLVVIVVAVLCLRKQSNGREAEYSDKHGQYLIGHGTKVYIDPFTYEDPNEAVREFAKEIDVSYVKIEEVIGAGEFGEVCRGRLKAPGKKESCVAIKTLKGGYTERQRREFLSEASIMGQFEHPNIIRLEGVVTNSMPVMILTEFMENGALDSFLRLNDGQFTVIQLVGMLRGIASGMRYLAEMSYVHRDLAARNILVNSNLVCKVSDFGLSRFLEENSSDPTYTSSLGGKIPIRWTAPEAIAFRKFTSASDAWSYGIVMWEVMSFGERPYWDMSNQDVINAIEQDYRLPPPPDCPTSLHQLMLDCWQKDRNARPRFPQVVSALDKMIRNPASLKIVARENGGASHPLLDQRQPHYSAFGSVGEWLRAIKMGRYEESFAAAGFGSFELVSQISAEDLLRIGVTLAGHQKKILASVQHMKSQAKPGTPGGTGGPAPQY
In words: Phosphorylated-EphB4 sandwich ELISA in T47D cell lysates. In kind it is cell-based. The note with it: T47D cells, 3 µg/ml ephrinB2-Fc preclustered with 0.3 µg/ml IgG Fc fragment; read-out: IC50 EphB4 phosphorylation. On the procedure:
Cells were seeded in 12-well plates at concentration of 10^5cells/ml in complete medium until they reached ∼40% confluence and serum starved overnight. The day after cells were treated with compounds under study, vehicle or standard drug, stimulated with the proper agonist, rinsed with sterile PBS and solubilized in lysis buffer. The lysates were resuspended and rocked at 4°C for 30 minutes and then centrifuged at 14000 xg for 5 minutes. The protein content of supernatant was measured with BCA protein assay kit (Thermo scientific), standardized to 200 µg/ml and transferred into a clean test tube ready to be used.
EphA2-, EphB4- and EGFR-phosphorylation were measured in cell lysates using DuoSet®IC Sandwich ELISA (RnD Systems, #DYC4056, #DYC4057 and #DYC1095, respectively) following manufacturer's protocol. […] The day after wells were washed and blocked for 1 hour at room temperature. After that, wells were washed and 100 µl/well of lysates were added at room temperature for 2 hours; wells were washed and incubated with Detection Antibody at room temperature for 2 hours.
EphB4 phosphorylation was stimulated with 3 µg/ml ephrinB2-Fc, preclustered with 0.3 µg/ml IgG Fc fragment on T47D cells (G, H, I). […] Phospho-EphA2/B4 levels are relative to ephrinA1/B2-Fc+DMSO. Data are the means of at least three independent experiment ± st. err. […]

Results on one molecule are retold here after paper PMC3068151 (PLoS ONE, 2011).

T1 sequence (Q03145 26-538 limits assumed): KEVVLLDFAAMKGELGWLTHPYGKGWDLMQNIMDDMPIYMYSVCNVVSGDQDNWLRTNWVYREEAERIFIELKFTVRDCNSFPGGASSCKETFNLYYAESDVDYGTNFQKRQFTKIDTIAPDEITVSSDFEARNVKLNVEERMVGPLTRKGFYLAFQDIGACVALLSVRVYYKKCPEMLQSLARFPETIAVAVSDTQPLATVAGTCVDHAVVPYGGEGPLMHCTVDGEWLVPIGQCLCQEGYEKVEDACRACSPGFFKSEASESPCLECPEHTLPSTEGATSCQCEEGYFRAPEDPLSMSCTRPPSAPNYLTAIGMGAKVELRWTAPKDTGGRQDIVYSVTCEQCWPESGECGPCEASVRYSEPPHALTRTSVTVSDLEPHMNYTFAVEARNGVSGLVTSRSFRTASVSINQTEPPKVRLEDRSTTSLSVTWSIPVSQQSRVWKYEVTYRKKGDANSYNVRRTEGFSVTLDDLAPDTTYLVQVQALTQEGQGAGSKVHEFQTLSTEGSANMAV

Turning to `C[C@H](CCC(=O)O)[C@H]1CC[C@H]2[C@@H]3CC[C@@H]4C[C@H](O)CC[C@]4(C)[C@H]3CC[C@]12C` [LCA, lithocholic acid], the “effect on VEGFR activity as agonist or antagonist” value in assay [1] is recorded as “failed to affect activity”. Moreover, the “reduction of EphA2-ephrinA1 binding (library screening)” value in assay [2] (200 µM, incubated 1 hour) is on record as “significantly reduce”. In addition, the “decrease of EphA2-ephrinA1 binding” value in assay [2] (bile acids, repeat of the 200 µM experiment) is on record as 68.2%±4.3. Moreover, the Ki in assay [2] (corresponding to pKi, read-out: Ki (Schild plot)) is 49 µM. The IC50 in assay [2] (read-out: IC50 displacement of biotinylated-ephrinA1-Fc from EphA2) came out at 57 µM; in assay [5] it was 141 µM. Further, the “slope of Schild plot” value in assay [2] (saturation curves with increasing LCA, r^2 = 0.9664) amounted to 0.8618. In addition, the “effect on EphA2 enzymatic activity” value in assay [3] was “did not modify enzymatic activity”. For the same molecule, the “reversibility of binding (displacement with or without washing)” value in assay [4] was “The displacement was detected only where the washing was not performed”.
